Results reported in a melting point compilation (Tetko et al.; mined from patent text by program, amines drawn as free bases though some values may be those of a salt).

Structure (SMILES) | melting point [°C]
CC1CC=CC2C(=O)OC(=O)C12 (stereo unspecified) | 55
CCOc1ncc(SC)cc1C(=O)O | 78 to 92
CN1CCC(NC(=O)c2cccc(Cl)c2)C12CCCCC2 (stereo unspecified) | 121 to 122
CC(=O)Oc1ccc(C(=O)Nc2cc([N+](=O)[O-])ccc2C)cc1 | 207 to 208
COc1ccc(C2CNC(=O)C2)cc1OC(C)C(O)CN1CCN(c2ccccc2)CC1 (stereo unspecified) | 116 to 118
COC(=O)c1c(C)oc2ccccc2c1=O | 116 to 118
O=c1n(CCCCN2CCN(c3cccc(Cl)c3)CC2)nc2n1-c1ccccc1OC2 | 132 to 134
c1c2c(cc3c1OCO3)CN(CN1CCc3cc4c(cc3C1)OCO4)CC2 | 116
CC(C)Oc1ccc(-n2c(C(=O)NCC(=O)O)c(Cl)c3cc(Oc4ccc(C(F)(F)F)cc4)ccc32)cc1 | 94 to 96
COc1cc(C[NH+]([O-])C(=O)C(F)(F)F)ccn1 (stereo unspecified) | 176 to 178
Cc1cc(-c2ccc(Cl)cc2)cnc1N | 156
O=C(O)C1=Cc2cc(Cl)cc(-c3ccco3)c2OC1C(F)(F)F (stereo unspecified) | 172 to 173
CC(C)c1ccc(Cl)nn1 | 32 to 33
CC(=O)Nc1ncc(S(=O)(=O)NC(C)(C)CO)s1 | 206
c1ccc(COc2ccc(Nc3ccccn3)cc2)cc1 | 110 to 112
CCSC1=C(NC(=O)CN2CCN(CCSc3nc4c(C)c(Cl)cc(C(C)C)c4o3)CC2)C=CC(C)(SCC)N1 (stereo unspecified) | 120 to 122
Nc1c(Cl)cc(C(O)CNCCCCCCOCCOCCc2ccccn2)cc1Cl (stereo unspecified) | 45.5 to 46.5
COc1cc2c(cc1Nc1ncc(Cl)c(Nc3ccccc3S(=O)(=O)N(C)C)n1)CCN(C(=O)CN1CCOCC1)CC2 | 84 to 95
CCOC(=O)C1=C(C)NN=C(C(=O)O)C1c1cccc(Cl)c1 (stereo unspecified) | 182
Cc1c(-c2cccnc2)n(CCCCCC(N)=O)c2ccc(Cl)cc12 | 137 to 140
COc1ccc(-n2nnc(-c3ccc(Cl)c(Cl)c3)c2N)cc1 | 190 to 191
Nc1ccccc1C(=O)C=CC(=O)O | 103 to 107
N#Cc1cc([N+](=O)[O-])ccc1OC1CCCCC1 | 97 to 98
Nc1ccc2sc3ccc(F)cc3c2c1 | 131 to 132
c1ccc(COc2cc(OCc3ccccc3)c3ccncc3c2)cc1 | 113 to 115
COc1ccc(C(=O)Nc2cc(NC(=O)c3cccc(NC(C)=O)c3)ccc2C)cc1OC | 187 to 188

Structure (SMILES) | melting point [°C]
CCCCCCCCCCCCCCOc1ccc(CBr)cc1CBr | 62.9
Cc1cccc(COc2ccc(C#N)cc2Cl)c1 | 73 to 75
O=C(O)Cc1csc(NC(=O)C(CC2CCCC2)c2ccc(Cl)c(Cl)c2)n1 (stereo unspecified) | 100 to 102
CC1=C(C(=O)OC(C)(C)C)C(c2ccccc2I)C(C(=O)OC(C)(C)C)=C(C)N1 | 184 to 185
CCOc1cc(OCCO)cc2c1C(=O)N(COC(=O)c1c(Cl)cccc1Cl)S2(=O)=O | 166
O=C(CCC1CCN(C(=O)OCc2ccc([N+](=O)[O-])cc2)CC1)c1ccc2c(c1)CN1C(=O)c3ccccc3C1CC2 (stereo unspecified) | 179 to 181
COC1=C(OC)C(=O)C(CO)=C(C)C1=O | 52 to 54
CN(C)C(=O)Nc1ccc(Oc2ccc3sncc3c2)c(C(F)(F)F)c1 | 188
CC(=O)OC(=CC(=O)O)CC(=O)Nc1cccc(F)c1 | 117
COc1ccc(C(O)CNCCc2ccc(OC)c(OC)c2C)cc1 (stereo unspecified) | 128 to 129
C[Si](C)(C)C#Cc1ccc(I)cc1 | 57 to 59
CC(C)=Nn1c(C(F)(F)F)cc(=O)n(-c2cc(Oc3ccccc3[N+](=O)[O-])c(Cl)cc2F)c1=O | 173 to 176
CC(C)Oc1nc(-c2ccc(=O)n(C(C)C)n2)c(-c2ccccc2)nc1N | 198 to 200
COCOc1ccccc1-c1cc(-c2cccc(C(=O)OC)c2)c(C#N)c(N)n1 | 129 to 130
O=c1cc(-c2ccc(F)cc2)c2ccc(Sc3cc(F)cc(C(O)(c4nccs4)C(F)(F)F)c3)cc2o1 (stereo unspecified) | 72 to 73
Cc1cc(-c2ccc(C(F)(F)F)cc2)cn2c(-c3nc(-c4ccc(N)nc4)no3)cnc12 | 257
CC(=O)c1cc(NS(C)(=O)=O)c(Sc2ccc(F)cc2F)cc1[N+](=O)[O-] | 169 to 170
Cc1nc(CCn2cnc3c2c(=O)n(C)c(=O)n3C)no1 | 112 to 114
Cc1nc(N)c2nc(CO)n(CC(C)C)c2c1C | 231 to 234
O=C(NC1CCC(CCN2CCC(c3cccc4c3CCO4)CC2)CC1)c1ccc(N2CCS(=O)(=O)CC2)cc1 (stereo unspecified) | 282
Cn1nc2c(N)nc3ccccc3c2c1CCCCCl | 188 to 189
CCC1CCCCN1CCNc1ccnc2cc(Cl)ccc12 (racemic) | 115 to 117
COC(=O)COc1c(OC)cc(C(=O)C#Cc2cc(-c3cccs3)c(OC)cc2OC)cc1OC | 153 to 155
COCc1nc(C(=O)OC)c(C(=O)OC)n1Cc1ccc([N+](=O)[O-])cc1 | 107 to 110
c1nnnn1C1CN2CCC1CC2 (stereo unspecified) | 83 to 84
O=C(Nc1ccc(N2CCN(C(=O)Nc3ccc(OCCO)cc3C(F)(F)F)CC2)cc1)Nc1ccccc1OC(F)F | 118 to 120

Structure (SMILES) | melting point [°C]
CCC(=O)N1C(=O)c2cc(C)ccc2Oc2ncccc21 | 142 to 145
O=C(Nc1ccccc1)N(Cc1ccc(F)cc1)C1CCCC1 | 120 to 121
O=c1[nH]c(=Cc2ccc(OCc3ccccc3)cn2)c(=O)[nH]c1=Cc1ccc2c(c1)OCO2 | 255 to 256
COc1cc(Nc2c(C#N)cnc3sc(I)cc23)c(Cl)cc1Cl | 231 to 233
O=C1NC(=O)C(CCCOc2ccc(F)cc2)S1 (stereo unspecified) | 119 to 121
Cc1ccc(CC(C(=O)NC(Cc2ccc(C#N)cc2)C(=O)N(C)C)S(=O)(=O)Nc2cccc3ccccc23)c(C)c1 (stereo unspecified) | 140
COC(=O)c1n[nH]c(=O)c2cc(OC)ccc12 | 222 to 225
CC(=O)SCC(Cc1ccc(F)cc1)C(=O)Nc1cccc(C(=O)O)c1 (stereo unspecified) | 172 to 174
N=C(Nc1ccccc1)Nc1ncccc1OCc1c(F)cccc1F | 136 to 137
COc1ccccc1-c1ccn(C(C)C(=O)N(C)C)n1 (stereo unspecified) | 92 to 94
CSC(SC)=C(C#N)C(=O)c1cc(C)ccc1C | 74.5 to 75.5
CCOC(=O)c1cnn(-c2cccc(S(=O)(=O)N(C)C)n2)c1N | 197 to 198
COC(=O)c1cc(Cl)c(Cl)cc1C#N | 120 to 123
CN1CN(C)C(=N[N+](=O)[O-])N(Cc2ccc(Cl)nc2)C1 | 116 to 117
O=CCC[C@@H]1[C@@H](OCc2ccc(-c3ccccc3)cc2)CO[C@@H]1c1cccnc1 | 204 to 205
C=CCNc1c(CO)cnc2cn(C)nc12 | 151 to 159
CNC(=O)N1C=CSC1c1sc(SC)c2c1CC(C)(C)CC2=O (stereo unspecified) | 202 to 204
CCOC(=O)Cc1ccc(OCc2ccc3oc([N+](=O)[O-])c(-c4ccccc4)c3c2)cc1 | 74 to 75
COc1ccc(C2=NN(c3nc(-c4cccs4)ns3)C(=O)[C@H]3CC=CC[C@@H]23)cc1Cl (relative stereo) | 254 to 256
CC(C)(C)[C@H]1CC[C@H](CCC(=O)O)CC1 | 105 to 107
COC(=O)C(C)(C)c1ccc(C(=O)CCCCl)cc1 | 175 to 181
O=C(O)COc1nc2cc(Cl)c3cccnc3c2o1 | 214 to 215
N#Cc1ccc(-c2cc(C(=O)O)c(=O)n(Cc3ccccc3)n2)cc1 | 254 to 256
O=C1NC(=O)[C@@]2(C[C@@H](C(=O)NCCN3CCN(C(c4ccccc4)c4ccccc4)CC3)Oc3ccc(F)cc32)N1 | 200 to 205
O=C(OCC(=O)N1CCCC1=O)c1ccccc1 | 83 to 84
Cc1ccc([PH](=O)c2ccc(C)cc2)cc1 | 93.7

Structure (SMILES) | melting point [°C]
CCOCc1nc2c(N)nc3cc(/C=C/C(=O)OC)ccc3c2n1CCCCN1CCCS1(=O)=O | 162 to 163
c1ccc2c(c1)CCc1c-2noc1N1CCN(Cc2c[nH]c3ncccc23)CC1 | 248 to 250
Cc1cc(OCc2ccccc2)cc(NC(=O)OC(C)C)c1C(=O)O | 137 to 139
CS(=O)(=O)CCCCC(Cc1ccccc1)S(=O)(=O)c1ccc(Cl)cc1 (stereo unspecified) | 68 to 70
O=C(O)CNC(=O)c1ncc2c(Cl)cccc2c1O | 232
Cc1oc(-c2ccccc2)nc1COc1ccc(C=NO)cc1 | 192 to 193
CCn1cc(C(=O)O)c(=O)c2cn(C)nc21 | 273 to 275
COC(=O)C(Br)(C1=NCCCS1)[N+](=O)[O-] (stereo unspecified) | 88.5 to 93
COc1ccc(C2CSc3ccccc3NC2=O)cc1Br (stereo unspecified) | 200
O=[N+]([O-])c1ccc2[nH]cc(Cn3ccnc3)c2c1 | 230 to 232
CCC1=NN(CCO[Si](C)(C)C(C)(C)C)C(=O)C1Oc1cc(C#N)cc(C#N)c1 (stereo unspecified) | 204
CC1(C)c2cccnc2C(=O)c2ccc(Cl)cc2S1(=O)=O | 189 to 191
Cc1nc2c(c3c1[nH]c1ccccc13)C(=O)CC(C)(C)C2 | 176 to 177
Cc1cc(-c2cnn3c(C(F)(F)F)cc(-c4ccc(F)c(Cl)c4)nc23)cc(C)n1 | 271
CCCc1c(OCCCOc2ccc(C(=O)CCl)c(OC)c2CCC)ccc2c1OC(C(=O)OC)CC2 (stereo unspecified) | 47 to 49
C1=C(c2c[nH]c3ccccc23)CCN(CCc2csc3ccccc23)C1 | 195 to 198
Cc1nc(-c2ccc(N)c(Br)c2)c[nH]1 | 34 to 36
CC(=O)OCCN(C)Cc1cc(C(=O)c2cccs2)cc(C(C)(C)C)c1O | 124 to 126
Cc1cccc(N(c2ccccc2)c2ccc3c(c2)C(CCCO)(CCCO)c2cc(N(c4ccccc4)c4cccc(C)c4)ccc2-3)c1 | 216 to 217
CCCCCC(=O)N1CCc2nc3ccccc3c(C)c2CC1 | 109
CN1C(C(=O)O)C(=O)c2ccccc2S1(=O)=O (stereo unspecified) | 144 to 146
C=CC(O)c1c(C(C)C)nc(C(C)C)c(CCCCC)c1-c1ccc(F)cc1 (stereo unspecified) | 83 to 85
COc1ccc(-c2cccc(O)c2)cc1 | 76.5 to 78
